Results on 3 molecules are retold here after patent US8129427B2, “2-phenylethylamino derivatives as calcium and/or sodium channel modulators” (Newron Pharmaceuticals S.p.A., priority 2005, dated 2012).

Structures can show the parent of a compound that is named as a salt.

In assay [1] the target is recombinant human N-type channels, h α1B (hCav2.2)+β1b+α2δ-1 subunits (Homo sapiens, UniProt Q00975). Briefly: Patch clamp studies of calcium currents inhibition in HEK293 cells. In kind it is cell-based. The settings on record: tonic block, preconditioning −50/−55 mV (half maximal steady-state inactivated condition); read-out: IC50 (Vhalf). The method, then:
Functional inhibition of the N-type Ca currents was studied using whole cell patch clamp methods (Hamill O. P., Marty A., Neher E., Sakmann B., Sigworth F. J. Pflugers Arch. (1981) 391: 85-100) on HEK293 cells expressing recombinant human N-type channels, obtained after transient transfection of h α1B (hCav2.2)+β1b+α2δ-1 subunits.
Membrane currents were recorded and filtered at 5 kHz with an Axon Axopatch 200B amplifier and digitized with an Axon Digidata 1322A (Axon Instruments, CA, USA). Voltage clamping of membrane potentials and data acquisition were controlled online with Axon pClamp8 software. Measuring and reference electrodes were AgCl—Ag electrodes. Cells had initial seal resistances of >1 GΩ and access resistances of 4.2±0.2 MΩ. Cells were continuously superfused with extracellular solutions using a Biologic RSC-200.
For calcium currents recording the control bath solution contained (mM): Choline chloride (70), MgCl2 (1), BaCl2 (20), TEA.Cl (50), Hepes (10), Glucose (10). Internal pipette solution consisted of (mM): CsCl (140), EGTA (10), MgCl2 (2), Hepes (10), MgATP (1), GTP Tris (0.3).
(§1) Compounds were dissolved as 20 mM stock solutions in DMSO and then diluted to the final concentration in the external solutions.
A two-step protocol was used to determine the voltage dependence of the block:
N-type current was activated by a 600 ms step pulse to +10 mV (test pulse) from a 5000 ms preconditioning potential of −110 mV (resting condition) or −50/−55 mV (half maximal steady-state inactivated condition), respectively.
The amplitude of calcium current peaks evoked by the respective test pulses at a frequency of 0.06 Hz were measured before and after exposure to the test substance. Tonic block of currents was calculated as the difference between the peak calcium current measured at the end of a stabilization period in the control external bath solution and peak currents measured at the end of test substance perfusion period (when steady state is reached) divided by control peaks. […]
For orientation: The patch-clamp technique gives a direct electrical read-out from membranes.

The subject of a further assay is TTXs sodium channels. Briefly: TTXs-sodium channel influx assay (membrane potential fluorescence). In kind it is cell-based, rat. The settings on record: ND7/23 cells, veratridine 100 μM. The method, then: ND7/23 rat dorsal root ganglion-derived cell line endogenously expresses a mixed population of TTXs sodium channels (such as Nav1.3, Nav1.2, Nav1.1, Nav1.6). These cells lack of TTXr sodium channels as shown by the absence of their respective transcripts. ND7/23 cells were grown in DMEM supplemented with 10% FBS and 1 mM sodium piruvate.
The cells were seeded at 50,000 cells/well on 96 poly-L-lysine-coated plates and further incubated for 18-24 h before use.
The Membrane Potential Kit Assay (Molecular Devices), based on a negatively charged fluorescent dye able to monitor changes in membrane potential caused by the sodium influx due to the channel opening, was used for the assay.
Cells were incubated with the dye loading for 30 minutes at 25° C. Then, 100 nM of the toxin Anemonia sulcata (used as enhancer of the channel opener response) alone or in the presence of TTX (as reference standard) or test compound were added for further 15 minutes.
The fluorescence (excitation: 530 nm, emission: 565 nm wavelength) was measured before and after (40-45 s) the automated injection of the sodium channel opener veratridine (100 μM) using a Victor plate reader (Perkin Elmer).
The inhibition curves were calculated from 5 concentrations, each in triplicate, and the IC50 determined using a linear regression analysis.

The next assay concerns L-type calcium channels. In kind it is cell-based, mouse. The settings on record: AtT20/D16v-F2 cells, ω-conotoxin 1 μM, 100 mM KCl depolarization.
Assay [2] has as its target T1, recombinant Nav 1.3 channels (Homo sapiens, UniProt Q9NY46).
T1 construct: expressed in transfected cells; host or cells: HEK293 cells
As to the kind of experiment: Patch clamp studies of sodium currents inhibition in HEK293 cells. In kind it is cell-based. The settings on record: tonic block, preconditioning −50 mV (half maximal steady-state inactivated condition); read-out: IC50 (Vhalf). The method, then: Cells and methods: Functional inhibition of the sodium currents was studied using whole cell patch clamp methods (Hamill O. P., Marty A., Neher E., Sakmann B., Sigworth F. J., Pflugers Arch. (1981) 391 (2): 85-100) on HEK293 cells expressing recombinant Nav 1.3 channels. Membrane currents were recorded as described in the example above.
For sodium current recording control bath solution contained (mM): NaCl (80), Choline chloride (38), CaCl2 (1.3), MgCl2 (2), KCl (2), CdCl2 (0.4), NiCl2 (0.3), TEA.Cl (20), Hepes (10), Glucose (10). Internal pipette solution consisted of (mM): EGTA (10), NaCl (10), CaCl2 (1.3), MgCl2 (2), Hepes (10), CsF (130), MgATP (1).
as §1
Voltage protocols and data analyses: A two-step protocol was used to determine the voltage dependence of the block:
sodium current was activated by a 30 ms step pulse to 10 mV (test pulse) from a 2000 ms preconditioning potential of −100 mV (resting condition) or −50 mV (half maximal steady-state inactivated condition), respectively.
The amplitude of sodium current peaks evoked by the respective test pulses at a frequency of 0.06 Hz were measured before and after exposure to the test substance. Tonic block of currents was calculated as the difference between the Nacurrent peak measured at the end of a stabilization period in the control external bath solution and the current peak measured at the end of test substance perfusion period (when steady state is reached) divided by control peaks. Drug concentration-inhibition curves were obtained by plotting tonic blocks versus drug concentrations. Dose-response curves were fitted to the tonic block data, according to the logistic equation: y=A2+(A1−A2)/[1+(x/IC50)^p]. A1 and A2 are fixed values of 0 and 1 corresponding to 0 and 100% current inhibition, x is the drug concentration, IC50 is the drug concentration resulting in 50% current inhibition and p is the corresponding slope factor.

The target of a further assay is N-type calcium channels (Homo sapiens, UniProt Q00975). Briefly: N-type calcium channel influx assay (fluorescence). In kind it is cell-based. The settings on record: differentiated IMR32 cells, nifedipine 1 μM, 100 mM KCl depolarization; read-out: IC50.
N-type calcium channels, sequence (Q00975 whole entry): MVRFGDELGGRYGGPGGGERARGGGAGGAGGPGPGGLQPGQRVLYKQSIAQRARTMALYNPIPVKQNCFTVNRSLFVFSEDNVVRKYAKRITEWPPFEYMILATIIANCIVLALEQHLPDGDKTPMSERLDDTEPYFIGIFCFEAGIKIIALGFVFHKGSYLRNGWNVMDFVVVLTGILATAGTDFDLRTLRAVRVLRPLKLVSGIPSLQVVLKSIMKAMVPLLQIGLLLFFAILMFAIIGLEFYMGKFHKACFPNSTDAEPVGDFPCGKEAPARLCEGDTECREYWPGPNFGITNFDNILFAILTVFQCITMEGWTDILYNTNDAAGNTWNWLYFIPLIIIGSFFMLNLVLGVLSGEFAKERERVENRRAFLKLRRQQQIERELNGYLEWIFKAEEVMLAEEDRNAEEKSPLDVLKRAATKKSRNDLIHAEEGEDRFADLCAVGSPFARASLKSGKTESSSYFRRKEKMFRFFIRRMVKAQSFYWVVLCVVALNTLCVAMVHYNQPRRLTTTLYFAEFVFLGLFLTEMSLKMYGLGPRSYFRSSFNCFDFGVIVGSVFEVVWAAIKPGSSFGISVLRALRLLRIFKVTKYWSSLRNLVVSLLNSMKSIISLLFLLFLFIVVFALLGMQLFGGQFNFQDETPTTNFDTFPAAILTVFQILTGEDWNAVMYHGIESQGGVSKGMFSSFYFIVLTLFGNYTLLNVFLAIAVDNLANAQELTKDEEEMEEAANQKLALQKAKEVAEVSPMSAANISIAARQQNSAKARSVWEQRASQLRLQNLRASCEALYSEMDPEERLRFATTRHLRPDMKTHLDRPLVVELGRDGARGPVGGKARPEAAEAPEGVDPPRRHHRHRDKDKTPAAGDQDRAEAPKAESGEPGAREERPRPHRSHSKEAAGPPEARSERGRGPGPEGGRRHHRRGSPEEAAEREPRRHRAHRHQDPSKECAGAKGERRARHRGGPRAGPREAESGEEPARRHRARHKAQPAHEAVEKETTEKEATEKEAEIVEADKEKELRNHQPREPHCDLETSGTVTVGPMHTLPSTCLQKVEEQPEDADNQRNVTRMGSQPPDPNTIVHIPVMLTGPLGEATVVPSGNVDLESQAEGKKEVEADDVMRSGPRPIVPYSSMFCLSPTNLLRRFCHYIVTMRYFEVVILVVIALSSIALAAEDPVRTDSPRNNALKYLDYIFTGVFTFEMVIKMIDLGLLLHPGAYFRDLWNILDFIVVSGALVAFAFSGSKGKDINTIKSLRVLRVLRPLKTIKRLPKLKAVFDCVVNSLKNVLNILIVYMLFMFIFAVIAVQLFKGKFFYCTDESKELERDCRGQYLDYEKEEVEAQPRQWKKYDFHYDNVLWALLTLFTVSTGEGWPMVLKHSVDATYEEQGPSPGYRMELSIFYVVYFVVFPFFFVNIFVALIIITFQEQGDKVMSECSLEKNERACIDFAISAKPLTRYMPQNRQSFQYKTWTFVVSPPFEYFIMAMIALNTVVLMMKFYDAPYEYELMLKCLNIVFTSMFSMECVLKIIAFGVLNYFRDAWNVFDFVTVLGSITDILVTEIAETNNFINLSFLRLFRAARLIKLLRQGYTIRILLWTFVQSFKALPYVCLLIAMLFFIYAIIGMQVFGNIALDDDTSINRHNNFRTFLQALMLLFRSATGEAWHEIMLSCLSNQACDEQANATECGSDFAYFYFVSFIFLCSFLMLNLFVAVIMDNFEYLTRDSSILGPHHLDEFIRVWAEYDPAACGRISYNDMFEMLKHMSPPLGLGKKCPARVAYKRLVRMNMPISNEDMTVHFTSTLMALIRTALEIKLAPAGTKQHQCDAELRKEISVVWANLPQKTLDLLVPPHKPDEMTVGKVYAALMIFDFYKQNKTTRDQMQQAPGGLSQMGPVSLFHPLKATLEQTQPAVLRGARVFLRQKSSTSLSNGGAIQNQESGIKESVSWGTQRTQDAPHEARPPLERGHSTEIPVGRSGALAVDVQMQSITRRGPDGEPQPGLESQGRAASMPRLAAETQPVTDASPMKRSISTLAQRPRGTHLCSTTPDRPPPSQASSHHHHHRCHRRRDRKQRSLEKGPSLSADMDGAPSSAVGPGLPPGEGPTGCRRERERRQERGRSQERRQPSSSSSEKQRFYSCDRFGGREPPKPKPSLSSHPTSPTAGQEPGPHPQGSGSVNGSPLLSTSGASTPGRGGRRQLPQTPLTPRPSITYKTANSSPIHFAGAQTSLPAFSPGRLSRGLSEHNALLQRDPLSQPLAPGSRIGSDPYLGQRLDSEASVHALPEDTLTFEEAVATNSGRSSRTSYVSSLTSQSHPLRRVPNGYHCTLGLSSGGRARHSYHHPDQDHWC
N-type calcium channels, sequence (Q02641 whole entry partner): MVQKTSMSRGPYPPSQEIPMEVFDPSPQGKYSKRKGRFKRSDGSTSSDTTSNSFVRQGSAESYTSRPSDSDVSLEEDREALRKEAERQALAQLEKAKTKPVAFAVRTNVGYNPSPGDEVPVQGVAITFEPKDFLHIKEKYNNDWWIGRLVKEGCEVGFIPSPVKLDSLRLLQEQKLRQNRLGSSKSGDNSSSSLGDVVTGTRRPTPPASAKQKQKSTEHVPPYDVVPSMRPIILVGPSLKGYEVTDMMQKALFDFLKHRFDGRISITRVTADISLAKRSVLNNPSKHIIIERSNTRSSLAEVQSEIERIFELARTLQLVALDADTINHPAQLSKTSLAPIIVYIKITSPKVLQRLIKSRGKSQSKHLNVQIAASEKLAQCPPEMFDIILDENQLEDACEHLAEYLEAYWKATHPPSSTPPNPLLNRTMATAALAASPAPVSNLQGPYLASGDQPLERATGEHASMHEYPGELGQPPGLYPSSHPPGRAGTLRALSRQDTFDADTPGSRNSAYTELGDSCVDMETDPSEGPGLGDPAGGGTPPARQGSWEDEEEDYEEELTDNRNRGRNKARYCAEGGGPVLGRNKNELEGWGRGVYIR
N-type calcium channels, sequence (P54289 25-956 partner limits assumed): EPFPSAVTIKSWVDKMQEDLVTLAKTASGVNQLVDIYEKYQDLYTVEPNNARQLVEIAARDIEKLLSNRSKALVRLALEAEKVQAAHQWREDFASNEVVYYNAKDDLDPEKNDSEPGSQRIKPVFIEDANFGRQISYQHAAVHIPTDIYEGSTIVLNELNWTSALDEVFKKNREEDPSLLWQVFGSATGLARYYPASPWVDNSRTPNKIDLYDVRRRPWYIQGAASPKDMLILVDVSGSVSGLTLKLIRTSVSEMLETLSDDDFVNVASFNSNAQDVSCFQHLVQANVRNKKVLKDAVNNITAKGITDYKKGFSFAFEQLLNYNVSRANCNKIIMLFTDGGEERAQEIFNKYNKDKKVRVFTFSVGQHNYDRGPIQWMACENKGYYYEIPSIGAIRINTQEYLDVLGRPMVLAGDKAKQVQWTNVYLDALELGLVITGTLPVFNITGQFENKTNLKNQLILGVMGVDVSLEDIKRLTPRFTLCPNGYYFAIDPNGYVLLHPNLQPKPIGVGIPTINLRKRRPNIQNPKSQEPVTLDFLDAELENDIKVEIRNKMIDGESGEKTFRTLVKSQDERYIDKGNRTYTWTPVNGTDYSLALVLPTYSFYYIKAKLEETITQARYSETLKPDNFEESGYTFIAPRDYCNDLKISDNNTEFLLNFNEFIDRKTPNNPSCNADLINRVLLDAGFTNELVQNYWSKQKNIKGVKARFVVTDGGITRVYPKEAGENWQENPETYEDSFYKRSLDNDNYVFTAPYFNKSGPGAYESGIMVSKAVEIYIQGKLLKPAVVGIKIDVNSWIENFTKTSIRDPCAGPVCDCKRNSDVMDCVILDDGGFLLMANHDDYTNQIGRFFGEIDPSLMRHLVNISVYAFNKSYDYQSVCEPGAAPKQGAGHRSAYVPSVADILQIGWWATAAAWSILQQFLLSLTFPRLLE
N-type calcium channels, sequence (P54289 957-1103 partner limits assumed): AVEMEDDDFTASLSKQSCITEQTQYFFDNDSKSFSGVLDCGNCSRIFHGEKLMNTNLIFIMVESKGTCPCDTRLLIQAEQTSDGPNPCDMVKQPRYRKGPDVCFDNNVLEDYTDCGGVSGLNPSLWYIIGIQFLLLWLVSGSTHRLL
A further assay deals with T2, MAO-B (Rattus norvegicus, UniProt P19643).
T2 construct: from tissue; host or cells: rat brain crude mitochondrial fraction
T2 sequence (P19643 1-520): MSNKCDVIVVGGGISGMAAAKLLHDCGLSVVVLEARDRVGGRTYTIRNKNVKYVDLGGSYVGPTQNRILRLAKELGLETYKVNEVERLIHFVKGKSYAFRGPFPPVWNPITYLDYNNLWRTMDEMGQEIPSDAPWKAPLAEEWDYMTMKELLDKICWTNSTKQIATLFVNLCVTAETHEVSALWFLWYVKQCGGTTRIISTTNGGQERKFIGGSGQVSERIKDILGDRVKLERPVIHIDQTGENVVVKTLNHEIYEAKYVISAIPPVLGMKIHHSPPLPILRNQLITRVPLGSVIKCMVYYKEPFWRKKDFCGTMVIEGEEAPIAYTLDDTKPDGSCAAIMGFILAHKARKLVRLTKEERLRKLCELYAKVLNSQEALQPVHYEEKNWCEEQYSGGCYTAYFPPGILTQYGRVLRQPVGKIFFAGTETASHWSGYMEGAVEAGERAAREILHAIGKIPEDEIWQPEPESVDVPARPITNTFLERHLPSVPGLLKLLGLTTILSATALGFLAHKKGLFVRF
Briefly: In vitro MAO-B enzyme activity radioenzymatic assay. In kind it is biochemical. Conditions: 100 μM compound, rat brain crude mitochondrial fraction, 14C-PEA substrate. The method, then: Male Wistar rats (Harlan, Italy—175-200 g) were sacrificed under light anaesthesia and brains were rapidly removed and homogenized in 8 volumes of ice-cold 0.32 M sucrose buffer containing 0.1 M EDTA, pH 7.4. The crude homogenate was centrifuged at 2220 rpm for 10 minutes and the supernatant recovered. The pellet was homogenized and centrifuged again. The two supernatants were pooled and centrifuged at 9250 rpm for 10 minutes at +4° C. The pellet was resuspended in fresh buffer and centrifuged at 11250 rpm for 10 minutes at +4° C. The resulting pellet was stored at −80° C.
The enzyme activities were assessed with a radioenzymatic assay using the substrates ^14C-serotonin (5-HT) and ^14C-phenylethylamine (PEA) for MAO-A and MAO-B, respectively.
The mitochondrial pellet (500 μg protein) was resuspended in 0.1 M phosphate buffer (pH 7.4). 500 μl of the suspension were added to a 50 μl solution of the test compound or buffer, and incubated for 30 min at 37° C. (preincubation) then the substrate (50 μl) was added. The incubation was carried out for 30 minutes at 37° C. (^14C-5-HT, 5 μM) or for 10 minutes at 37° C. (^14C-PEA, 0.5 μM).
The reaction was stopped by adding 0.2 ml of 37% HCl or perchloric acid. After centrifugation, the deaminated metabolites were extracted with 3 ml of diethyl ether (5-HT) or toluene (PEA) and the radioactive organic phase was measured by liquid scintillation spectrometry at 90% efficiency. The amount of neutral and/or acidic metabolites formed as a result of MAO activity was obtained by measuring the radioactivity of the eluate.
The activity of MAO in the sample, corresponding to a percentage of radioactivity compared with the control activity in the absence of the inhibitor, was expressed as nmoles of substrate transformed/mg protein/min.

Assay [3] relates to maximal electroshock seizures in mice. As to the kind of experiment: Maximal electroshock test (MES) in mice. The settings on record: i.v., 5 minutes before testing. In kind it is in vivo, mouse. From the text:
Animals and Apparatus: Male CDl mice weighing 25 g were used. The procedure described by White et al. (White H. S., Woodhead J. H., Franklin […]., and Wolf H. H. Antiepileptic Drugs (1995) 4th ed: 99-110, Raven Press, Ltd., New York) was followed. An Ugo Basile electroconvulsive generator (Model ECT UNIT 7801) was used to deliver an electrical stimulus sufficient to produce a hindlimb tonic extensor response in at least 97% of control animals. The stimulus was delivered intra-aurally through clip electrodes in mice (0.7 s of a 40 mA shock, with a pulse train of 80 Hz having a pulse duration of 0.4 ms). […] Ten mice were studied per group. Complete suppression of the hindlimb tonic extensor component of seizures was taken as evidence of anticonvulsant activity.
(In general: Protection in the maximal electroshock model is a classic sign of anticonvulsant action.)

recombinant human N-type channels, h α1B (hCav2.2)+β1b+α2δ-1 subunits, sequence (Q00975 whole entry): as the sequence (Q00975 whole entry) above
recombinant human N-type channels, h α1B (hCav2.2)+β1b+α2δ-1 subunits, sequence (Q02641 whole entry partner): as the sequence (Q02641 whole entry partner) above
recombinant human N-type channels, h α1B (hCav2.2)+β1b+α2δ-1 subunits, sequence (P54289 25-956 partner limits assumed): as the sequence (P54289 25-956 partner limits assumed) above
recombinant human N-type channels, h α1B (hCav2.2)+β1b+α2δ-1 subunits, sequence (P54289 957-1103 partner limits assumed): as the sequence (P54289 957-1103 partner limits assumed) above

Consider `CNC(=O)CN(CCc1ccc(OCc2cccc(F)c2)c(OC)c1)CC1CCOC1` (centres unmarked) [Example 7, 2-[[2-[4-(3-Fluoro-benzyloxy)-3-methoxy-phenyl]-ethyl]-(tetrahydrofuran-3-ylmethyl)amino]-N-methyl-acetamide hydrochloride], for which the IC50 in assay [1] came to 11 µM.
Regarding `CNC(=O)CN(CCc1ccc(OCc2cccc(F)c2)c(OC)c1)CC1CC1` [Example 8, 2-[[2-[4-(3-Fluoro-benzyloxy)-3-methoxy-phenyl]-ethyl]-(cyclopropylmethyl)amino]-N-methyl-acetamide hydrochloride], the IC50 worked out at 5.2 µM in assay [1]; 3.5 µM with TTXs sodium channels; 3.8 µM with L-type calcium channels; 9.8 µM in assay [2]; 2.1 µM at N-type calcium channels.
At MAO-B, `C[C@H](NCc1ccc(OCc2cccc(F)c2)cc1)C(N)=O` [safinamide, (S)-(+)-2-[4-(3-fluoro-benzyloxy)-benzylamino]-propanamide, reference compound] returned an inhibition at 100 µM of 100%. For the same molecule, the “50% Protection” value in assay [3] is on record as “(4.0 mg/kg/iv)”.

As usually defined, the IC50 is the concentration that gives 50% inhibition. As a reminder, the inhibition is how much of the control response was suppressed. Read a high inhibition as a strong effect.
